Assay results reported in PMC8290022, “Electrophysiological characterization of a diverse group of sugar transporters from Trichoderma reesei” (Scientific Reports, 2021).

These compounds were tested against T1, STR3 (Trire2_62380) (Trichoderma reesei, UniProt G0RKF0) (assay: two-electrode voltage clamp in Xenopus oocytes, transport current). Conditions: pH 5.5, -50 mV, H+ symport.
T1 construct: gene TRIREDRAFT_62380
Type: cell-based

T1 sequence (G0RKF0 entry or part of it): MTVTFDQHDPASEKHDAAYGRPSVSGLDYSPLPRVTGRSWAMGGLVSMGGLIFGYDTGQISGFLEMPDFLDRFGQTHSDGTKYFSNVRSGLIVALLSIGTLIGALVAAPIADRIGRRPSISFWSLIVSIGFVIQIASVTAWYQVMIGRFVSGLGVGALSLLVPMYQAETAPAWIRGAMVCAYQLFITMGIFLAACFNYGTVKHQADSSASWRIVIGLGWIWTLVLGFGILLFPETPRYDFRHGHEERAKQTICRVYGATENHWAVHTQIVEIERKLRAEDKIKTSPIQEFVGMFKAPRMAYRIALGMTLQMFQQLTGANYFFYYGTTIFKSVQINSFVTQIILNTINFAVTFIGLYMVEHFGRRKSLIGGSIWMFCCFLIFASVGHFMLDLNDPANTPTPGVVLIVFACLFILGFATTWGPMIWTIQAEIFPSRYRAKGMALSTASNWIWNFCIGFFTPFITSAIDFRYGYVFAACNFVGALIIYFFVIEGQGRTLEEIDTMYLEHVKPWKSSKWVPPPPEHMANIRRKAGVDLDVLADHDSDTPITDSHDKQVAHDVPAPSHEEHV

Km [µM]	SMILES
1110 ± 490	OC[C@H]1OC(O)[C@H](O)[C@@H](O)[C@H]1O (stereo partly drawn) [D-galactose]
57.9 ± 17.7	OC[C@H]1OC(O)[C@H](O)[C@@H](O)[C@@H]1O (stereo partly drawn) [D-glucose]
186 ± 18.9	OC[C@H]1OC(O)[C@@H](O)[C@@H](O)[C@@H]1O (stereo partly drawn) [D-mannose]
